According to patent US11530181B2, “IL-6 inhibitors and methods of treatment” (University of Florida Research Foundation, Incorporated, priority 2018, dated 2022):

Columns and labels:
[1] = system: IL-4 induced STAT6 phosphorylation; assay: Western blot, IL-4 induced STAT6 phosphorylation in MCF7; type: cell-based, human; settings: MCF7, pre-treatment 2, 3 and 4 hours
Protocol: (§1) Cells were harvested and lysed in cold radioimmunoprecipitation assay (RIPA) lysis buffer containing proteasome inhibitor cocktail and phosphatase inhibitor cocktail. The protein concentrations were determined using the BCA Protein Assay kit. After adding the loading buffer and boiling at 95° C. for 10 minutes, equivalent amounts of proteins were loaded on and separated by SDS-PAGE, and then were transferred to PVDF membranes. Membranes were probed with primary antibodies (1:1000) against phospho-STAT3 (Tyr705), STAT3, phospho-STAT1 (Tyr701), STAT1, phospho-STAT6 (Tyr 641), STAT6, and GAPDH, respectively, and horseradish peroxidase (HRP)-conjugated secondary antibody (1:10000) (Cell Signaling Technology, Beverly, Mass.). Membranes were analyzed using Enhanced Chemiluminescence Plus reagents and either scanned with the Storm Scanner (Amersham Pharmacia Biotech, Inc., Piscataway, N.J.) or imaged with ChemiDoc MP imaging system (Bio-Rad, Hercules, Calif.). […] The cells were harvested after 30 minutes and analyzed by Western blot.
(§2) MCF7 breast cancer cells were seeded in 10 cm plates (1 million cells per plate) and allowed to adhere overnight. […] The cells were harvested after 30 minutes and analyzed by western blotting.

[2] = system: OSM induced STAT3 phosphorylation; assay: Western blot, OSM induced STAT3 phosphorylation in MCF7; type: cell-based, human
Protocol: as §1, §2

[3] = system: tert-immortalized human mammaryepithelial cells (HMEC-tert); assay: Cell viability of normal cells HMEC-tert vs SUM159; type: cell-based; settings: 0.25-10 μM, 48 hours
Protocol: Cell viability was evaluated by using the MTT assay in triple replicates in one experiment and repeated for three times. Cancer cells were seeded in 96-well plates at a density of 3,000 cells per well. The cells were incubated at 37° C. for a period of 24 hours. Escalating concentrations of IL-6/gp130 inhibitors were added in triplicate to the plates in the presence of 10% FBS. After incubation for 48 or 72 hours, a stock solution of MTT (0.5 mg/ml) was then added to each well containing the treated cells, followed by incubation at 37° C. for 3 h. After removal of medium, the MTT dye was dissolved with spectrophotometric grade DMSO and the absorbance was read at 570 nm. The IC50 value is determined by interpolation based on the absorbance value halfway between positive and negative controls. In the experiment of LLM4 showing higher efficacy in cancer cells with higher levels of IL-6, instead of using medium with 10% FBS, DMEM with 0% FBS was used in order to eliminate the influence of trace amounts of growth factors and cytokines in FBS.
To examine whether the novel compounds show cytotoxicity to normal cells, cell viability was also measured when the normal cell line tert-immortalized human mammaryepithelial cells (HMEC-tert) [Yang H, Pinello C E, Luo J, et al. Small-molecule inhibitors of acetyltransferase p300 identified by high-throughput screening are potent anticancer agents. […]

gp130-D1-D3 = target: T1, gp130-D1-D3 (Homo sapiens, UniProt P40189); assay: SPR direct binding to immobilized gp130-D1-D3 (CM5 chip); settings: for Kd: SPR, gp130-D1-D3, linear regression at low concentrations, 25% Rmax; for ΔGexp: experimental binding energy from SPR KD
T1 construct: residues 1-301, the numbering system is based on PDB 3L5H, which is the mature form of gp130; tandem TFH purification tag (includes FLAG, as purified on anti-FLAG M2 agarose) (C); made in house; host or cells: Hi5 insect cells (baculovirus; virus generated in sf9)
T1 sequence (P40189 23-323): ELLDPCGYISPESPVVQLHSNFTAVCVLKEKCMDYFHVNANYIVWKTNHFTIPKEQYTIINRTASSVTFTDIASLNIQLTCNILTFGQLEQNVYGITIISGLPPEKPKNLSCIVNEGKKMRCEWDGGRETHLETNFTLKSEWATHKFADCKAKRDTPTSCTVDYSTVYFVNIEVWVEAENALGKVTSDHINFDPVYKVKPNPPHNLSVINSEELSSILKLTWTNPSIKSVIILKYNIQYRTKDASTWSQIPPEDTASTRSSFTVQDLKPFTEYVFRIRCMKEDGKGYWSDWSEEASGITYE

[4] = system: STAT3 phosphorylation in SUM159 cells; assay: Western blot, STAT3 phosphorylation in SUM159 (IL-6 autocrine); type: cell-based, human; settings: SUM159, 1-4 μM, 16 h
Protocol: as §1
BxPC-3 and SUM159 cells were seeded in 10 cm plates (1 million cells per plate) and allowed to adhere overnight. […] Then cells were harvested and analyzed by western blotting.
SUM159 cells were seeded in 10 cm plates (1 million cells per plate) and allowed to adhere overnight. […] Then cells were harvested and analyzed by western blotting.

| Kd (gp130-D1-D3) [µM] | ΔGexp (gp130-D1-D3) [kcal/mol] | SMILES | effect on IL-4 induced STAT6 phosphorylation ([1]; 15 μM) | OSM induced STAT3 phosphorylation ([2]; MCF7, 15 μM, 2, 3 and 4 hours) | differential cytotoxic effects to HMEC-tert and SUM159 cells [3] | inhibition of STAT3 phosphorylation [4] | effect on STAT6 phosphorylation [1] | inhibition of OSM induced STAT3 phosphorylation ([2]; MCF7, 4 μM) |
| --- | --- | --- | --- | --- | --- | --- | --- | --- |
| – | – | O=C(Nc1cc(F)ccc1-n1cccc1)c1ccc(OCCCN2CCCCC2)cc1 [LLM4, N-(5-fluoro-2-(1H-pyrrol-1-yl)phenyl)-4-(3-(piperidin-1-yl)propoxy)benzamide] | no effect | remain intact | – | – | – | – |
| 15.6 | -6.55 | O=C(Nc1cccc(OCCN2CCCCC2)c1)Nc1cccc(-c2ccn[nH]2)c1 [LLM414, 1-(3-(1H-pyrazol-5-yl)phenyl)-3-(3-(2-(piperidin-1-yl)ethoxy)phenyl)urea] | – | – | selectively kill cancer cells | inhibited STAT3 phosphorylation in SUM159 cells | – | – |
| 20.5 | -6.39 | O=C(Nc1ccccc1-c1ccn[nH]1)c1ccc(OCCN2CCCCC2)cc1 [LLM418, N-(2-(1H-pyrazol-5-yl)phenyl)-4-(2-(piperidin-1-yl)ethoxy)benzamide] | – | – | selectively kill cancer cells | stronger inhibition than LLM414 | little effect | very little inhibitory effect |
